Assay results from paper PMC7252619 (PLoS ONE, 2020).
Values joined by “and” are separate entries in the source; they are usually repeats but may differ in a detail not shown here. Equal values may be shown once. Read-outs that look alike come from different tables or passages of the source.

What was measured:
Test in all cases: Kinase activity test (ReactionBiology), % enzyme activity relative to DMSO
Type in all cases: biochemical
[1] = target: T1, EPHB4 (Homo sapiens, UniProt P54760);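 further: EPHB4 was one of ten selected kinases in the screening panel, with enzyme activity expressed as a percentage of DMSO controls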
T1 construct: purchased ReactionBiology
T1 sequence (P54760 16-987): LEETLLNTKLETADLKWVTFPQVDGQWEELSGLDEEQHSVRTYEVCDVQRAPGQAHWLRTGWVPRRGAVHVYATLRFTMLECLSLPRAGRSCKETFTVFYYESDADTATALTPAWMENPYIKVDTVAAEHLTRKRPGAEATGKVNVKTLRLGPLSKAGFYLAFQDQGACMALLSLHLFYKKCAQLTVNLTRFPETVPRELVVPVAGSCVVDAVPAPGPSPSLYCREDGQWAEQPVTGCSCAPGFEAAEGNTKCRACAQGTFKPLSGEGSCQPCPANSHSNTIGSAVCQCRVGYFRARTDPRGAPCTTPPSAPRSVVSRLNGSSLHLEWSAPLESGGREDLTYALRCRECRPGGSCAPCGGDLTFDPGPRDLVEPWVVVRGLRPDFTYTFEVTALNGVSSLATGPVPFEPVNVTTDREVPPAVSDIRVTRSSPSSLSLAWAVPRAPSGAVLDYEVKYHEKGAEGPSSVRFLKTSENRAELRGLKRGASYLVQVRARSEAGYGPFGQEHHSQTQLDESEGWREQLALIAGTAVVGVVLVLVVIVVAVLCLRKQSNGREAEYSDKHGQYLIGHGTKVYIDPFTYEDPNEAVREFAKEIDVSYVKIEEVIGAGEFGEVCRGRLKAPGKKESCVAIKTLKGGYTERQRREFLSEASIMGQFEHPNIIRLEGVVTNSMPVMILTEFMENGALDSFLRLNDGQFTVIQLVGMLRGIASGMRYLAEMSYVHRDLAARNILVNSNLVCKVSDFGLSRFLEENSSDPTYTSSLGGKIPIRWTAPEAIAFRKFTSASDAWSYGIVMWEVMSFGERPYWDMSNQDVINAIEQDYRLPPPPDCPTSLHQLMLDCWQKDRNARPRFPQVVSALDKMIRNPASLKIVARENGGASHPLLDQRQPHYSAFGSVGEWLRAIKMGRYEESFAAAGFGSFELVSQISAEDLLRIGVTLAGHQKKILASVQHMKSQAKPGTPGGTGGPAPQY

[2] = target: T2, CK1d (Homo sapiens, UniProt P48730); conditions: for % Enzyme Activity (relative to DMSO controls), Data 1: replicate Data 1
T2 construct: purchased ReactionBiology

[3] = target: VEGFR2 (Homo sapiens, UniProt P35968); design: purchased ReactionBiology; conditions: for % Enzyme Activity (relative to DMSO controls), Data 1: replicate Data 1;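 on all read-outs here: VEGFR2 was one member of a ten-kinase screening panel testing marketed FDA-approved drugs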
[4] = target: T3, DAPK1 (Homo sapiens, UniProt P53355)
T3 construct: purchased ReactionBiology

[5] = target: T4, NEK2 (Homo sapiens, UniProt P51955); conditions: NEK2; for % Enzyme Activity (relative to DMSO controls), Data 1: replicate Data 1; for % Enzyme Activity (relative to DMSO controls), Data 2: replicate Data 2;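 on all read-outs here: FDA-approved drugs chosen by structure-based repositioning, each screened at 10 or 1 µM for kinase activity, expressed as percent of DMSO controls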
T4 construct: purchased ReactionBiology
T4 sequence (P51955 1-445): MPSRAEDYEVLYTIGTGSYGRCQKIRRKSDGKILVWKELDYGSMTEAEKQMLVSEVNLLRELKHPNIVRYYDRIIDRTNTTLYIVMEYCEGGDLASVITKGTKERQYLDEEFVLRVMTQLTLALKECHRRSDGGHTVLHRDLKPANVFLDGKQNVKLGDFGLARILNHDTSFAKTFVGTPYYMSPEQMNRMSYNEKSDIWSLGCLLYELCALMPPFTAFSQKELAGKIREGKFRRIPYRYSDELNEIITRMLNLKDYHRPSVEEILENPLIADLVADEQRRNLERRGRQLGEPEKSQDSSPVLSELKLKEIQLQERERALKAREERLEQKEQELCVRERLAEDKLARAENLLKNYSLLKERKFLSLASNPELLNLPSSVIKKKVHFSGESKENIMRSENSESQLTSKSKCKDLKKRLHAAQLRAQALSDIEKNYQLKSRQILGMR

[6] = VEGFR2, 10 uM, replicate Data 2

Chain of VEGFR2 (P35968 20-1356): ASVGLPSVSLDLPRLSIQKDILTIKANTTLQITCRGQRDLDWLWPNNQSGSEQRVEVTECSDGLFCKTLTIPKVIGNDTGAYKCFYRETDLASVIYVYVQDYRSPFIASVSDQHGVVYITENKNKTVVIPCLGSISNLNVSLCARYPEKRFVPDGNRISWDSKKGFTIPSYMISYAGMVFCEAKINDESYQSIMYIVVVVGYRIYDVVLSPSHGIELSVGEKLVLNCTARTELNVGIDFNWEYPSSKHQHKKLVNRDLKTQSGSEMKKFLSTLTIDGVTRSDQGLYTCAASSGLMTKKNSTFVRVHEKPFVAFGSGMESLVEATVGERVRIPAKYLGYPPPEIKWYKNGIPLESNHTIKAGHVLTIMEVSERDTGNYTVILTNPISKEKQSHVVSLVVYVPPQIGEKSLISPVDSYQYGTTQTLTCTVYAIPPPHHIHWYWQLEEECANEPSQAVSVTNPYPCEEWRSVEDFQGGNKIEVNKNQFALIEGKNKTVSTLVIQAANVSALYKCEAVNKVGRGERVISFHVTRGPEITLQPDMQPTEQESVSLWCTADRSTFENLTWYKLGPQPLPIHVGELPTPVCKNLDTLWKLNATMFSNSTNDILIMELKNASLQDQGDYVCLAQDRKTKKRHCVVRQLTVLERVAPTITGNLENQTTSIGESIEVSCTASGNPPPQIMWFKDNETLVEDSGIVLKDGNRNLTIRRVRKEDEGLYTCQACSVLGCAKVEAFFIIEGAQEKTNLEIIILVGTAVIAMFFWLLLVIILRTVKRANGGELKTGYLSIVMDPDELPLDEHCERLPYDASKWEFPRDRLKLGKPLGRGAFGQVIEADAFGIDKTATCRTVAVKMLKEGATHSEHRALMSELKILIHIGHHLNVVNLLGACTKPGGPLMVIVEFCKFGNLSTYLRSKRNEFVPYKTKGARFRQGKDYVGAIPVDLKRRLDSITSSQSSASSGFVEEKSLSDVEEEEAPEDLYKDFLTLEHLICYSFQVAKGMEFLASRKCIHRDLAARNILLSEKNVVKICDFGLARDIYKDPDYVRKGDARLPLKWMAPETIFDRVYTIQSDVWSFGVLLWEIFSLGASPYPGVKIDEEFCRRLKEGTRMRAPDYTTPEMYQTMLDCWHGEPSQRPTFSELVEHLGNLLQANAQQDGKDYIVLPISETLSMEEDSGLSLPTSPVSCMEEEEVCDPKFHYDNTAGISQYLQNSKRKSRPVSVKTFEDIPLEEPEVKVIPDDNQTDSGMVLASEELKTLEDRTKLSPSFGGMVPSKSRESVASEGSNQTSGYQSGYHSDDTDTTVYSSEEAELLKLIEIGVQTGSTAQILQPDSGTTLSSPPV
T2 sequence (P48730 whole entry): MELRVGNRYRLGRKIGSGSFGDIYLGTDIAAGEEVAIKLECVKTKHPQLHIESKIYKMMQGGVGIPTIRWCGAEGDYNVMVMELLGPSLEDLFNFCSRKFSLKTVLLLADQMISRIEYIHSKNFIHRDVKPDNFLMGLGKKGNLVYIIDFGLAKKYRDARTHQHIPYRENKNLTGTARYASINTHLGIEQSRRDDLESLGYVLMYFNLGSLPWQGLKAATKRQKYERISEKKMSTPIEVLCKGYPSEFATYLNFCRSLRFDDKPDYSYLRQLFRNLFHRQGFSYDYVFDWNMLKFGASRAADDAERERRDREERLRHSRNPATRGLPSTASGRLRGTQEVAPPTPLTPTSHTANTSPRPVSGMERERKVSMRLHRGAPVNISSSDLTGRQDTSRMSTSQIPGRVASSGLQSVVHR
T3 sequence (P53355 whole entry): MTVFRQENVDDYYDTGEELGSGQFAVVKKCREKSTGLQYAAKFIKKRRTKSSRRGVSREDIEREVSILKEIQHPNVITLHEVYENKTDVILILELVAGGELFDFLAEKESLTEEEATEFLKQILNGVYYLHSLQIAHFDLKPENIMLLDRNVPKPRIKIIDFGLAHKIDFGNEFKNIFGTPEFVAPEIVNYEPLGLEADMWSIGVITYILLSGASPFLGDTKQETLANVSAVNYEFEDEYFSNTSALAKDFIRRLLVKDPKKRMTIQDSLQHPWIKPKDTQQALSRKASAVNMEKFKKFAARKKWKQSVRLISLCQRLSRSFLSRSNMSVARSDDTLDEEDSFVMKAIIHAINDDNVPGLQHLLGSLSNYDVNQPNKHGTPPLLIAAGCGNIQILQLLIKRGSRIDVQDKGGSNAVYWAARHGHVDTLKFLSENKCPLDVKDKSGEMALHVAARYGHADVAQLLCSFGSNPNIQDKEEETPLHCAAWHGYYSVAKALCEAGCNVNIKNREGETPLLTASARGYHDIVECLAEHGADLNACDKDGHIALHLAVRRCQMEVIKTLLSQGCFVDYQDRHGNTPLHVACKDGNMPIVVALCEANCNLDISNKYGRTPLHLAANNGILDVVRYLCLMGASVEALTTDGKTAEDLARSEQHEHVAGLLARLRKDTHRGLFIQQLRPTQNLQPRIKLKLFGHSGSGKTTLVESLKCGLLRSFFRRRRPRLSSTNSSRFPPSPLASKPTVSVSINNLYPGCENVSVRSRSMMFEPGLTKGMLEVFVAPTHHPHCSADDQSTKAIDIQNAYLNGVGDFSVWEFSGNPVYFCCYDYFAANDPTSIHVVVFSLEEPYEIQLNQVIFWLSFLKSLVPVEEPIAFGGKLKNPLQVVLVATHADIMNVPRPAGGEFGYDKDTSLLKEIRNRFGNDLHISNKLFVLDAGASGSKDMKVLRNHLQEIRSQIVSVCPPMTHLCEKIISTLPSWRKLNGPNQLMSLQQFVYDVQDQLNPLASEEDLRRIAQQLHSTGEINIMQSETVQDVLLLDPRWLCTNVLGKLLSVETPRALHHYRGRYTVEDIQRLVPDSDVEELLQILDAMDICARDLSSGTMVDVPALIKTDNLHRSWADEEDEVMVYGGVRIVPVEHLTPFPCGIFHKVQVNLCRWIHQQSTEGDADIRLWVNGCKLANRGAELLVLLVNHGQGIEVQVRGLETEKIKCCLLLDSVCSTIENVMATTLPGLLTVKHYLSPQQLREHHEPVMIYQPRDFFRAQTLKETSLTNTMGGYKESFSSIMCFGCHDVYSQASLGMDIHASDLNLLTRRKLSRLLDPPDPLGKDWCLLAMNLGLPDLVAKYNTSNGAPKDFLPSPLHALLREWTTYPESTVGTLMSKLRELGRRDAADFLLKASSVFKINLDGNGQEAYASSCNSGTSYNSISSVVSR

| Compound | % Enzyme Activity (relative to DMSO controls), Average ([1]; EPHB4, 1 uM, Average) [%] | % Enzyme Activity (relative to DMSO controls), Data 1 ([1]; EPHB4, 1 uM, replicate Data 1) [%] | % Enzyme Activity (relative to DMSO controls), Data 2 ([1]; EPHB4, 1 uM, replicate Data 2) [%] | % Enzyme Activity (relative to DMSO controls), Average ([1]; EPHB4, 10 uM, Average) [%] | % Enzyme Activity (relative to DMSO controls), Data 1 ([1]; EPHB4, 10 uM, replicate Data 1) [%] | % Enzyme Activity (relative to DMSO controls), Data 2 ([1]; EPHB4, 10 uM, replicate Data 2) [%] | % Enzyme Activity (relative to DMSO controls), Average ([2]; CK1d, 1 uM) [%] | % Enzyme Activity (relative to DMSO controls), Average ([3]; VEGFR2, 1 uM) [%] | % Enzyme Activity (relative to DMSO controls), Average ([3]; VEGFR2, 10 uM) [%] | % Enzyme Activity (relative to DMSO controls), Data 1 ([2]; CK1d, 1 uM) [%] | % Enzyme Activity (relative to DMSO controls), Average ([2]; CK1d, 10 uM) [%] | % Enzyme Activity (relative to DMSO controls), Data 1 ([3]; VEGFR2, 1 uM) [%] | % Enzyme Activity (relative to DMSO controls), Data 1 ([3]; VEGFR2, 10 uM) [%] | other results |
| --- | --- | --- | --- | --- | --- | --- | --- | --- | --- | --- | --- | --- | --- | --- |
| O=C1c2cccc3c2[C@H](CCC3)CN1[C@@H]1CN2CCC1CC2 [Palonosetron] | 97.11 | 97.96 | 96.26 | 88.19 | 86.49 | 89.88 | – | – | – | – | – | – | – | – |
| Cc1ccc(-c2cc(C(F)(F)F)nn2-c2ccc(S(N)(=O)=O)cc2)cc1 [Celecoxib] | 103.20 | – | – | 99.23 | – | – | 94.68 | 113.33 | 110.02 | – | – | – | – | – |
| N[C@H]1C(O)O[C@H](CO)[C@@H](O)[C@@H]1O (stereo partly drawn) [Glucosamine] | – | – | – | – | – | – | – | – | – | – | – | – | – | % Enzyme Activity (relative to DMSO controls), Average ([4]; DAPK1, 1 uM, Average): 102.43%; % Enzyme Activity (relative to DMSO controls), Data 1 ([4]; DAPK1, 1 uM, replicate Data 1): 102.25%; % Enzyme Activity (relative to DMSO controls), Data 2 ([4]; DAPK1, 1 uM, replicate Data 2): 102.61%; % Enzyme Activity (relative to DMSO controls), Average ([4]; DAPK1, 10 uM, Average): 123.43%; % Enzyme Activity (relative to DMSO controls), Data 1 ([4]; DAPK1, 10 uM, replicate Data 1): 142.72%; % Enzyme Activity (relative to DMSO controls), Data 2 ([4]; DAPK1, 10 uM, replicate Data 2): 104.13%; % Enzyme Activity (relative to DMSO controls), Average ([5]; 1 uM): 82.84%; % Enzyme Activity (relative to DMSO controls), Data 1 ([5]; 1 uM): 79.92%; % Enzyme Activity (relative to DMSO controls), Data 2 ([5]; 1 uM): 85.75%; % Enzyme Activity (relative to DMSO controls), Average ([5]; 10 uM): 95.78%; % Enzyme Activity (relative to DMSO controls), Data 1 ([5]; 10 uM): 90.86%; % Enzyme Activity (relative to DMSO controls), Data 2 ([5]; 10 uM): 100.69% |
| C/C(O)=C(\C#N)C(=O)Nc1ccc(C(F)(F)F)cc1 [Teriflunomide] | 101.51 | 102.27 | 100.74 | 94.56 | 96.08 | 93.04 | – | – | – | – | – | – | – | – |
| Penicillin | 101.77 | 104.24 | 99.3 | 95.95 | 97.18 | 94.72 | 98.45 | – | – | 97.41 | 115.43 | – | – | % Enzyme Activity (relative to DMSO controls), Data 2 ([2]; CK1d, 1 uM, replicate Data 2): 99.49%; % Enzyme Activity (relative to DMSO controls), Data 1 ([2]; CK1d, 10 uM): 111.85%; % Enzyme Activity (relative to DMSO controls), Data 2 ([2]; CK1d, 10 uM, replicate Data 2): 119.01% |
| Nc1c2c(nc3ccccc13)CCCC2 [Tacrine] | – | – | – | – | – | – | – | – | – | – | – | – | – | % Enzyme Activity (relative to DMSO controls), Data 2 [1]: 73.14% and 73.39%; % Enzyme Activity (relative to DMSO controls), Data 2 [2]: 118.35%; % Enzyme Activity (relative to DMSO controls), Data 2 [3]: 94.26% and 99.54% |
| CCCCC1C(=O)N(c2ccccc2)N(c2ccccc2)C1=O [Phenylbutazone] | 101.67 | 102.42 | 100.92 | 94.49 | 94.37 | 94.61 | – | 106.05 | 96.15 | – | – | 102.9 | 86.33 | % Enzyme Activity (relative to DMSO controls), Data 2 ([3]; VEGFR2, 1 uM, replicate Data 2): 109.19%; % Enzyme Activity (relative to DMSO controls), Data 2 [3, 6]: 105.96% |
| C[C@H]1O[C@@H](O[C@H]2[C@@H](O)C[C@H](O[C@H]3[C@@H](O)C[C@H](O[C@H]4CC[C@@]5(C)[C@H](CC[C@@H]6[C@@H]5C[C@@H](O)[C@]5(C)[C@@H](C7=CC(=O)OC7)CC[C@]65O)C4)O[C@@H]3C)O[C@@H]2C)C[C@H](O)[C@@H]1O [Digoxin] | 101.58 | 99.88 | 103.27 | 92.84 | 91.71 | 93.96 | 103.51 | – | – | 105.62 | 100.70 | – | – | % Enzyme Activity (relative to DMSO controls), Data 2 ([2]; CK1d, 1 uM, replicate Data 2): 101.39%; % Enzyme Activity (relative to DMSO controls), Data 1 ([2]; CK1d, 10 uM): 102.31%; % Enzyme Activity (relative to DMSO controls), Data 2 ([2]; CK1d, 10 uM, replicate Data 2): 99.09% |
| CN1CCC[C@H]1c1cccnc1 [Nicotine] | – | – | – | – | – | – | – | – | – | – | – | – | – | % Enzyme Activity (relative to DMSO controls), Average [4]: 100.32% and 100.82%; % Enzyme Activity (relative to DMSO controls), Data 1 [4]: 100.9% and 106.33%; % Enzyme Activity (relative to DMSO controls), Data 2 [4]: 99.74% and 95.31%; % Enzyme Activity (relative to DMSO controls), Average [1]: 98.32% and 87.80%; % Enzyme Activity (relative to DMSO controls), Data 1 [1]: 99.28% and 89.89%; % Enzyme Activity (relative to DMSO controls), Data 2 [1]: 97.35% and 85.7% |
| CCc1nc(N)nc(N)c1-c1ccc(Cl)cc1 [Pyrimethamine] | – | – | – | – | – | – | 93.71 | 107.43 | 102.76 | 95.24 | 84.36 | 104.33 | 106.39 | % Enzyme Activity (relative to DMSO controls), Data 2 ([2]; CK1d, 1 uM, replicate Data 2): 92.18%; % Enzyme Activity (relative to DMSO controls), Data 1 ([2]; CK1d, 10 uM): 85.89%; % Enzyme Activity (relative to DMSO controls), Data 2 ([2]; CK1d, 10 uM, replicate Data 2): 82.82%; % Enzyme Activity (relative to DMSO controls), Average ([5]; 1 uM): 106.09%; % Enzyme Activity (relative to DMSO controls), Data 1 ([5]; 1 uM): 107.69%; % Enzyme Activity (relative to DMSO controls), Data 2 ([5]; 1 uM): 104.49%; % Enzyme Activity (relative to DMSO controls), Average ([5]; 10 uM): 102.63%; % Enzyme Activity (relative to DMSO controls), Data 1 ([5]; 10 uM): 102.17%; % Enzyme Activity (relative to DMSO controls), Data 2 ([5]; 10 uM): 103.08%; % Enzyme Activity (relative to DMSO controls), Data 2 ([3]; VEGFR2, 1 uM, replicate Data 2): 110.52%; % Enzyme Activity (relative to DMSO controls), Data 2 [3, 6]: 99.13% |
| Fc1ccc([C@@H]2CCNC[C@H]2COc2ccc3c(c2)OCO3)cc1 [Paroxetine] | 110.35 | – | – | 94.48 | – | – | – | 108.60 | 108.08 | – | 105.10 | – | – | – |
| CCCc1nn(C)c2c(=O)[nH]c(-c3cc(S(=O)(=O)N4CCN(C)CC4)ccc3OCC)nc12 [Sildenafil] | – | – | – | – | – | – | – | – | – | 107.72 | – | 112.59 | 111.96 | % Enzyme Activity (relative to DMSO controls), Data 1 ([5]; 1 uM): 95.77%; % Enzyme Activity (relative to DMSO controls), Data 1 ([5]; 10 uM): 85.23% |
| COc1ccc2c3c1O[C@H]1C[C@@H](O)C=C[C@@]31CCN(C)C2 [Galantamine] | 104.29 | 104.73 | 103.85 | 94.53 | 95.37 | 93.68 | – | 103.82 | 93.22 | – | – | 106.14 | 95.78 | % Enzyme Activity (relative to DMSO controls), Data 2 ([3]; VEGFR2, 1 uM, replicate Data 2): 101.5%; % Enzyme Activity (relative to DMSO controls), Data 2 [3, 6]: 90.65% |
